Data taken from patent US20160355456A1, “PLANT EXTRACTS AND USE THEREOF” (TAKASAGO INTERNATIONAL CORPORATION, priority 2007, published 2016).

Assays:
Format in all cases: biochemical
[1] = Deodorizing activity test (1) with tyrosinase as polyphenol oxidase; conditions: Tyrosinase 1 mg, sample 2 mg, sodium methyl mercaptan 15% aqueous solution 2 μl, room temperature 10 minutes, head space gas detection tube
Method: (§1) Tyrosinase (mfd. by SIGMA, 1 mg) or laccase (mfd. by Amano Enzyme, 1 mg) was added as a polyphenol oxidase to each (2 mg) of 5-CQA (mfd. by Tokyo Chemical Industry), ferulic acid (mfd. by Tokyo Chemical Industry) and ferulylquinic acid and dissolved therein, and then sodium methyl mercaptan (mfd. by Tokyo Chemical Industry, 15% aqueous solution) (2 μl) was added thereto as a malodor substance and sealed therein, followed by stirring at room temperature for 10 minutes. The amount of methyl mercaptan in the head space part was measured using a gas detection tube (GASTEC Corporation, #71H) and the deodorizing ratio was calculated in accordance with the following mathematical expression.
(§2) In this connection, a system to which each of CQA or FQA (2 mg) and polyphenol oxidase were not added was used as a control plot.
(§3) Deodorizing ratio (%)=100−(methyl mercaptan concentration of sample plot/methyl mercaptan concentration of control plot)×100

[2] = Deodorizing activity test (1) with laccase as polyphenol oxidase; conditions: Laccase 1 mg, sample 2 mg, sodium methyl mercaptan 15% aqueous solution 2 μl, room temperature 10 minutes, head space gas detection tube
Method: as §1, §2, §3

[3] = Anti-oxidation activity test (DPPH radical elimination ability); conditions: Trolox equivalent amount; sample 100 mg/l in 50% v/v ethanol, 1 mM DPPH, 30 minutes, absorbance 520 nm
Method: As the anti-oxidation activity, to what extent it can eliminate DPPH (1,1-diphenyl-2-picrylhydrazyl) (mfd. by Tokyo Chemical Industry) radicals was evaluated by an absorptiometric method (520 nm). Its illustrative method is as the following anti-oxidation activity measuring method.
Used as the standard of radical elimination ability was Trolox (218940050: mfd. by ACROS ORGANICS) prepared from α-tocopherol which is a typical antioxidant substance by releasing its side chain to provide water-soluble nature. By preparing a calibration curve of Trolox concentration and absorbance (y=−0.2099x+0.4179), anti-oxidation activity of each sample was evaluated by converting it into Trolox equivalent amount. Regarding samples in the table, 5-CQA is manufactured by Tokyo Chemical Industry and ferulic acid is manufactured by Tokyo Chemical Industry.
1 mM ethanol solution of DPPH is prepared (39.4 mg/100 ml). After dissolution, DPPH is immediately used in the test (preparation when used).
By dissolving each sample in 50% v/v ethanol, its 100 mg/l solution is prepared.
A 4 ml portion of the above-mentioned sample solution and 1 ml of the DPPH solution are added to a test tube, followed by stirring and allowing to stand still for 30 minutes, and then absorbance at a wavelength of 520 nm is measured.
By applying absorbance of the sample to the calibration curve, Trolox equivalent amount (mol) is calculated.

Row | Compound | Deodorizing ratio (%) [1] [%] | Deodorizing ratio (%) [2] [%] | Anti-oxidation activity (T. μmol/μmol) [3] [T. μmol/μmol]
1 | COc1cc(/C=C/C(=O)O)ccc1O [Ferulic acid, ferulic acid] | −10 | −18 | 0.37
2 | ferulylquinic acid | −20 | −18 | 0.35
3 | O=C(/C=C/c1ccc(O)c(O)c1)O[C@@H]1C[C@@](O)(C(=O)O)C[C@@H](O)[C@@H]1O [Example 5-CQA, 5-caffeoylquinic acid] | 75 | 100 | 1.03
